According to PMC9146377, “Design and Synthesis of Novel Bis-Imidazolyl Phenyl Butadiyne Derivatives as HCV NS5A Inhibitors” (Pharmaceuticals, 2022):
Read-outs that look alike come from different tables or passages of the source.

Assays:
[1] = system: (+) strand HCV RNA, Con1 (GT 1b) subgenomic replicon; assay: RT-qPCR quantification of HCV RNA in Huh5-2 replicon cells; type: cell-based, Hepatitis C virus; conditions: normalized to YWHAZ
Procedure: The potency of compound 10a measured by the luciferase assay in HCV GT 1b was confirmed at the level of viral RNA and NS5A protein expression. Huh5-2 replicon cells were treated with 10a in serial dilutions, or its solvent DMSO (control), and viral RNA was quantified by reverse transcription-quantitative polymerase chain reaction (RT-qPCR). NS5A protein levels were evaluated by indirect immunofluorescence combined with confocal microscopy analysis. […] Nuclei were stained with propidium iodide (PI) as a cell viability control.
Extraction of total RNA from Huh5-2 cells was performed using TRIzol reagent (Ambion, Austin, TX, USA), according to the manufacturer’s instructions. Replicon RNA was quantified with reverse transcription (RT) and quantitative real-time polymerase chain reaction (qPCR). RT was performed using a Con1 IRES-specific primer (IRES-R: 5′-[…]-3′) and Moloney Murine Leukemia Virus (MMLV) reverse transcriptase (Promega). […]
Figure 6 Inhibition of HCV RNA and protein expression levels exerted by compound 10a in HCV Con1 (GT 1b) subgenomic replicon cell line. […] Values are expressed as a percentage of those obtained from cells treated with the solvent (control). […]

[2] = system: subgenomic replicon of HCV GT 2a (strain JFH1); assay: Anti-HCV luciferase assay, genotype 2a replicon in Huh7-JFH1 cells; type: cell-based, Hepatitis C virus; conditions: for EC50: Huh7-JFH1 cells
Procedure: Specifically, we determined the activity of 10a against viral replication by measuring luciferase activity in Huh7-JFH1, Huh7.5-3a, and Huh7.5-4a stable cell lines containing subgenomic replicons of HCV GT 2a (strain JFH1), GT 3a (strain S52) and GT 4a (strain ED43), respectively. In addition, the activity of 10a was determined in Huh7-Lunet cells electroporated with the in vitro transcribed full-length reporter viral RNA of HCV genotype 1a (strain H77S.3).
Huh5-2 [65] and Huh7-JFH1 [66] stable cell lines harbor the subgenomic HCV reporter replicon I389luc-ubi-neo/NS3-3′/Con1/5.1 (genotype 1b; strain Con1) and I389luc-ubi-neo/NS3-3′_dg_JFH1 (genotype 2a, JFH1 strain), respectively (kindly provided by R. Bartenschlager, Heidelberg University, Heidelberg, Germany). Huh7.5-3a and Huh7.5-4a stable cell lines harbor the subgenomic HCV reporter replicon S52-SG (Feo) (AII) (genotype 3a; S52 strain) and ED43-SG (Feo) (VYG) (genotype 4a; ED43 strain), respectively (viral constructs kindly provided by C.M. Rice, Rockefeller University, New York, NY, USA). […]
The anti-HCV assay in replicon cells was performed by seeding 1 × 10^4 cells per well in a 96-well plate. […] Cells were lysed after 72 h, and F-Luc activity was measured. […] At 72 h post-treatment, cell supernatants were collected, and G-Luc activity was measured. In addition, the cells were lysed for total protein quantification.
Relative luminescence units (RLU) were expressed as a percentage of the respective units derived from DMSO-treated cells (control). […]
The F-Luc activity was measured using the Luciferase Assay System (Promega, Madison, WI, USA), as recommended by the manufacturer. The G-Luc activity was measured using 12 μM coelenterazine (Promega) in assay buffer (50 mM potassium phosphate, pH 7.4, 500 mM NaCl, 1 mM EDTA). […] The F-Luc activity was normalized to the total protein amount determined using the Bradford assay reagent (Pierce, Waltham, MA, USA).

[3] = system: HCV genotype 1a (strain H77S.3) full-length reporter viral RNA; assay: microbe, parasite or virus in culture; type: cell-based, Hepatitis C virus
[4] = Cytotoxicity assay (intracellular ATP levels), Table 4 Gt1a; type: cell-based; conditions: human, Huh7-Lunet cells, HCV 1a (H77) full length
Procedure: Intracellular ATP levels were measured to determine the cytotoxicity of the compounds in the treated cells. In 96-well plates, 10^4 cells per well were seeded, incubated with serial dilutions of the compounds or DMSO as a control for 72 h at 37 °C (5% CO2) and lysed for ATP measurement. ATP levels were measured using the ViaLight HS BioAssay kit (Lonza, Basel, Switzerland) in a GloMax 20/20 single-tube luminometer (Promega) for 1 s, according to the manufacturer’s protocol. Values were normalized to total protein amounts and used to determine the compound concentration causing 50% cell death (CC50). Nonlinear regression analysis was performed using Prism 5.0 software (GraphPad Software Inc., San Diego, CA, USA).

[5] = Phase I and phase II metabolic stability in human liver S9 fractions; type: in vitro ADME; conditions: LC-MS/MS, read-out: half-life time (t½)
Procedure: This was done using human liver S9 fractions, following the previously reported protocol. A number of samples were taken at defined time points, and using LC-MS/MS, the remaining percentage of the parent compound was determined.

**Q.** For `COC(=O)N[C@@H](C(=O)N1CCC[C@H]1c1ncc(-c2cccc(C#CC#Cc3cccc(-c4cnc([C@@H]5CCCN5C(=O)[C@H](NC(=O)OC)c5ccccc5)[nH]4)c3)c2)[nH]1)c1ccccc1` [Compound 10a, Dimethyl ((1R,1′R)-((2S,2′S)-((buta-1,3-diyne-1,4-diylbis(3,1-phenylene))bis(1H-imidazole-5,2-diyl))bis(pyrrolidine-2,1-diyl))bis(2-oxo-1-phenylethane-2,1-diyl))dicarbamate], which EC50 ([1]; Hepatitis C virus, GT1B, Huh-5-2, RT-qPCR) is on record?
**A.** Its EC50 is 0.255 nM.

**Q.** And the EC50 ([1]; RT-qPCR)?
**A.** Its EC50 is 0.25 nM.

**Q.** What about the “Gt2a SI” value [2] of the same molecule?
**A.** Its value is >3567.61.

**Q.** What about the EC50 ([2]; Hepatitis C virus, GT2A) of the same molecule?
**A.** Its EC50 is 28 nM.

**Q.** What about the EC50 ([2]; listed as Comp. 10a, read-out: Gt2a EC50) of the same molecule?
**A.** Its EC50 is 28 nM.

**Q.** What about the melting point of the same molecule?
**A.** The melting point was 126 to 128 °C.

**Q.** And the “Gt1a SI” value ([3]; HCV 1a (H77) full length)?
**A.** Its value is >2792.52.

**Q.** What about the EC50 ([3]; Hepatitis C virus, Huh-7, 72 h, read-out: Gt1a EC50) of the same molecule?
**A.** The EC50 was 35.8 nM.

**Q.** And the CC50 at 72 h [4]?
**A.** The CC50 at 72 h was > 100000 nM.

**Q.** What about the half-life [5] of the same molecule?
**A.** Its half-life is > 2 h.
